In this assay the target is CDK4/CyclinD1 (Homo sapiens, UniProt P11802). The experiment in a line: CDK4/CyclinD1 Flashplate assay, 96-well format, biotinylated-Rb peptide substrate. In kind it is biochemical. The protocol:
This is a CDK4/CyclinD1 kinase assay in a 96-well Streptavidin-coated Flashplate with a biotinylated-Rb peptide substrate.
Each point is tested in duplicate
Biotinylated-Rb: Biotin-[…]
• 1. Prepare substrate: 1 mg/ml solution made fresh in PBS. • 2. Add 100 μg per well to the Flashplate. • 3. Incubate for 2 hours at RT. • 4. From 10 mM inhibitor stocks in DMSO, make 1 mM, 300 μM, 100 μM, 30 μM and 10 μM series of dilution in DMSO. • 5. Wash the Flashplate 3 times with 300 μl PBS to remove unbound peptide substrate. • 6. Add the CDK4/CyclinD1 kinase: 70 ng per well, in a volume of 90 μl in kinase buffer (except for “no enzyme” control wells). • 7. Add 1 μl^1 per well of inhibitor to test 10 μM, 3 μM, 1 μM, 0.3 μM and 0.1 μM in final concentration per 100 μl in each well. • 8. Shake gently the Flashplate 1 minute. • 9. Incubate 30 minutes on wet ice. • 10. Initiate the reaction with 10 μl kinase buffer containing 1 μM final cold ATP and 1 μCi final ^33P-ATP per well. • 11. Shake gently the Flashplate 1 minute. • 12. Incubate 45 minutes at RT (no shaking). • 13. Wash the Flashplate 3 times with 300 μl PBS • 14. Count to detect the incorporation of ^33P-ATP by the kinase to the Rb phosphorylation site.

For orientation: IC50 means the concentration at which inhibition is half-maximal. A higher IC50 goes with a need for much substance. As usually defined, the inhibition is the drop in the measured response relative to a control, in per cent.

Molecules are shown by their SMILES.

CDK4/CyclinD1, sequence (P11802 whole entry, species assumed): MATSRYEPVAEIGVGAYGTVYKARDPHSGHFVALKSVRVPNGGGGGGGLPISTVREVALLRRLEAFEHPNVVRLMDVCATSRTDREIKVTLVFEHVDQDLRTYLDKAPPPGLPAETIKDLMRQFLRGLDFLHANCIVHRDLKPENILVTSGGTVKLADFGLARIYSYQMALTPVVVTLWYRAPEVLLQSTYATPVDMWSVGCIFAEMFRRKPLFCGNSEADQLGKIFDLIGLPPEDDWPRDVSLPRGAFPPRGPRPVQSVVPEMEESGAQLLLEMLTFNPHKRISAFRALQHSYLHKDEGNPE
CDK4/CyclinD1, sequence (P24385 whole entry partner, species assumed): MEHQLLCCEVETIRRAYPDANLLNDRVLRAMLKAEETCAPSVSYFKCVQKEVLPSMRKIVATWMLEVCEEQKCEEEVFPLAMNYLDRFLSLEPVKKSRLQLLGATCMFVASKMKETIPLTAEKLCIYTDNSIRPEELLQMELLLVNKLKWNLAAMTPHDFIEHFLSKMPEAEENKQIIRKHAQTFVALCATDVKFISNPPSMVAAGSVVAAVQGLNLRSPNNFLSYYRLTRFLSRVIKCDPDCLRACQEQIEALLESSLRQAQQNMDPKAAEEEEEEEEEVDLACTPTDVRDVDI

`COC(=O)Nc1nc2cc(OS(=O)(=O)c3cccc(C(F)(F)F)c3)ccc2[nH]1` [Example 62-m, 3-Trifluoromethyl-benzenesulfonic acid 2-methoxycarbonylamino-1H-benzoimidazol-5-yl ester]: the half-maximal inhibitory concentration (IC50) worked out at 1.2 µM.
Same read-out and setting: the value for `O=C(Nc1nc2cc(OS(=O)(=O)c3ccc(NCCO)cc3)ccc2[nH]1)C1CC1` [Example 60-c, 4-(2-Hydroxy-ethylamino)-benzenesulfonic acid 2-(cyclopropanecarbonyl-amino)-1H-benzoimidazol-5-yl ester] was 0.34 µM.
On to `O=C(NCc1ccccn1)Nc1nc2cc(OS(=O)(=O)c3ccc(NCC4CCNCC4)cc3)ccc2[nH]1` [Example 78-u], for which, where the note is “at 10 μM”, the “inhibition of CDK4/cyclinD1 at 10 μM” value was 93% inhibition at 10 μM.
For `CCNC(=O)Nc1nc2cc(OS(=O)(=O)c3ccc(NCCOC)cc3)ccc2[nH]1` [Example 78-h, 4-(2-Methoxy-ethylamino)-benzenesulfonic acid 2-[3-(2-ethyl)-ureido]-1H-benzoimidazol-5-yl ester], 10 µM produced 90% inhibition.
Same read-out and setting: then `O=C(NCCF)Nc1nc2ccc(OS(=O)(=O)c3ccc(NCCF)cc3)cc2[nH]1` [Example 80-c, 4-(2-Fluoro-ethylamino)-benzenesulfonic acid 2-[3-(2-fluoro-ethyl)-ureido]-3H-benzoimidazol-5-yl ester], with 100%.
For the compound `COC(=O)Nc1nc2cc(OS(=O)(=O)c3ccccc3C#N)ccc2[nH]1` [Example 62-n, 2-Cyano-benzenesulfonic acid 2-methoxycarbonylamino-1H-benzoimidazol-5-yl ester], inhibition was half-maximal at 1 µM (IC50).
Same read-out and setting: then `COC(=O)Nc1nc2cc(OS(=O)(=O)c3ccccc3C(F)(F)F)ccc2[nH]1` [Example 62-o, 2-Trifluoromethyl-benzenesulfonic acid 2-methoxycarbonylamino-1H-benzoimidazol-5-yl ester], with 1 µM; and `O=C(Nc1nc2cc(OS(=O)(=O)c3ccc(NC4CN5CCC4CC5)cc3)ccc2[nH]1)C1CC1` (stereo not shown) [Example 60-v, 4-(1-Aza-bicyclo[2.2.2]-oct-3-ylamino)-benzenesulfonic acid 2-(cyclopropane-carbonyl-amino)-1H-benzoimidazol-5-yl ester], with 4.2 µM.
Compound `O=S(=O)(Oc1ccc2[nH]c(Nc3ccccc3)nc2c1)c1ccc(NC2CCCC2)cc1` [Example 70-a, 4-Cyclopentylamino-benzenesulfonic acid 2-phenylamino-1H-benzoimidazol-5-yl ester] showed a half-maximal inhibitory concentration (IC50) of 1.18 µM.
`COCCNC(=O)Nc1nc2cc(OS(=O)(=O)c3ccc(NCCN4CCOCC4)cc3)ccc2[nH]1` [Example 78-s, 4-(2-Morpholin-4-yl-ethylamino)-benzenesulfonic acid 2-[3-(2-methoxy-ethyl)-ureido]-1H-benzoimidazol-5-yl ester] yielded an inhibition at 10 µM of 88%.
Compound `COCCNc1ccc(S(=O)(=O)Oc2ccc3[nH]c(NC(=O)OC)nc3c2)cc1` [Example 68-a, 4-(2-methoxy-ethylamino)-benzenesulfonic acid 2-methoxycarbonylamino-1H-benzoimidazol-5-yl ester] returned an inhibition at 10 µM of 97%.
For the compound `CC[C@@H](CO)Nc1ccc(S(=O)(=O)Oc2ccc3[nH]c(NC(=O)C4CC4)nc3c2)cc1` [Example 60-r, 4-(1S-Hydroxymethyl-propylamino)-benzenesulfonic acid 2-(cyclopropanecarbonyl-amino)-1H-benzoimidazol-5-yl ester], the 50% inhibitory concentration (IC50) stood at 0.6 µM.
In turn, `COC(=O)Nc1nc2ccc(OS(=O)(=O)c3ccc(OCCN4CCOCC4)cc3)cc2[nH]1` [Example 64-b, 4-(2-Morpholin-4-yl-ethoxy)-benzenesulfonic acid 2-methoxycarbonylamino-3H-benzoimidazol-5-yl ester] yielded an inhibition at 10 µM of 50%.
As for `O=C(Nc1nc2cc(OS(=O)(=O)c3ccc(NCCNc4ccccc4)cc3)ccc2[nH]1)C1CC1` [Example 60-w, 4-(2-Phenylamino-ethylamino)-benzenesulfonic acid 2-(cyclopropanecarbonyl-amino)-1H-benzoimidazol-5-yl ester], the IC50 was 0.5 µM.
The same measure, in the same setting: the value for `COC(=O)Nc1nc2ccc(OS(=O)(=O)c3ccc(OC(F)(F)F)cc3)cc2[nH]1` [Example 61] was 2.06 µM.
Still for that read-out and setting: then `O=C(Nc1nc2cc(OS(=O)(=O)c3ccc(NC4CCC(O)CC4)cc3)ccc2[nH]1)C1CC1` (stereo not shown) [Example 60-p, 4-(4-Hydroxy-cyclohexylamino)-benzenesulfonic acid 2-(cyclopropanecarbonyl-amino)-1H-benzoimidazol-5-yl ester], with 1.2 µM; and `CN1CCN(CCCNc2ccc(S(=O)(=O)Oc3ccc4[nH]c(NC(=O)C5CC5)nc4c3)cc2)CC1` [Example 60-n, 4-[3-(4-Methyl-piperazin-1-yl)-propylamino]-benzenesulfonic acid 2-(cyclopropanecarbonyl-amino)-1H-benzoimidazol-5-yl ester], with 2 µM; and `O=C(Nc1nc2cc(OS(=O)(=O)c3ccc(NCCCN4CCCC4=O)cc3)ccc2[nH]1)C1CC1` [Example 60-ae, 4-[3-(2-Oxo-pyrrolidin-1-yl)-propylamino]-benzenesulfonic acid 2-(cyclopropanecarbonyl-amino)-1H-benzoimidazol-5-yl ester], with 2.2 µM.
Still for that read-out and setting: the value for `O=C(Nc1nc2cc(OS(=O)(=O)c3ccc(NCCCO)cc3)ccc2[nH]1)C1CC1` [Example 60-d, 4-(3-Hydroxy-propylamino)-benzenesulfonic acid 2-(cyclopropanecarbonyl-amino)-1H-benzoimidazo1-5-yl ester] was 0.9 µM; that for `O=C(O)[C@@H]1CCCN1C(=O)Nc1nc2cc(OS(=O)(=O)c3ccc(NC4CCCC4)cc3)ccc2[nH]1` [Example 58-q, 1-[5-(4-Cyclopentylamino-benzenesulfonyloxy)-1H-benzoimidazol-2S-ylcarbamoyl]-pyrrolidine-2-carboxylic acid] was 1 µM.
`COCCNC(=O)Nc1nc2cc(OS(=O)(=O)c3ccc(NCC4CCNCC4)cc3)ccc2[nH]1` [Example 78-v, 4-[(Piperidin-4-ylmethyl)-amino]-benzenesulfonic acid 2-[3-(2-methoxy-ethyl)-ureido]-1H-benzoimidazol-5-yl ester] displayed an inhibition at 10 µM of 46%.
Turning to `COC(=O)Nc1nc2cc(OS(=O)(=O)c3ccccc3F)ccc2[nH]1` [Example 62-d, 2-Fluoro-benzenesulfonic acid 2-methoxycarbonylamino-1H-benzoimidazol-5-yl ester], half-maximal inhibition (IC50) was put at 1.3 µM.
Still for that read-out and setting: then `O=C(Nc1nc2cc(OS(=O)(=O)c3ccc(NCCOCCO)cc3)ccc2[nH]1)C1CC1` [Example 60-ai, 4-[2-(2-Hydroxy-ethoxy)-ethylamino]-benzenesulfonic acid 2-(cyclopropanecarbonyl-amino)-1H-benzoimidazol-5-yl ester], with 1.6 µM; and `O=C(Nc1nc2cc(OS(=O)(=O)c3ccc(NCCN4CCCC4)cc3)ccc2[nH]1)C1CC1` [Example 60-g, 4-(2-Pyrrolidin-1-yl-ethylamino)-benzenesulfonic acid 2-(cyclopropanecarbonyl-amino)-1H-benzoimidazol-5-yl ester], with 1.5 µM.
Still for that read-out and setting: then `NC(=O)C1CCCN1C(=O)Nc1nc2cc(OS(=O)(=O)c3ccc(NC4CCCC4)cc3)ccc2[nH]1` (stereo not drawn) [Example 58-ae, 4-Cyclopentylamino-benzenesulfonic acid 2-[(2S-carbamoyl-pyrrolidine-1-carbonyl)-amino]-1H-benzoimidazol-5-yl ester], with 1.49 µM.
Same read-out and setting: the value for `CC(C)N(CCNc1ccc(S(=O)(=O)Oc2ccc3[nH]c(NC(=O)C4CC4)nc3c2)cc1)C(C)C` [Example 60-t, 4-(2-Diisopropylamino-ethylamino)-benzenesulfonic acid 2-(cyclopropanecarbonyl-amino)-1H-benzoimidazol-5-yl ester] was 2 µM.
With `COC(=O)Nc1nc2cc(OS(=O)(=O)c3ccc(NC(C)CO)cc3)ccc2[nH]1` (stereo not shown) [Example 68-b, 4-(2-hydroxy-1-methyl-ethylamino)-benzenesulfonic acid 2-methoxycarbonylamino-1H-benzoimidazol-5-yl ester], the inhibition at 10 µM amounted to 78%.
With `COC(=O)Nc1nc2cc(OS(=O)(=O)c3ccc(NC(C)CO)cc3)ccc2[nH]1` (stereo not shown) [Example 8, Methyl-5-(4-[1-methyl,2-hydroxyethyl]aminophenyl-sulfonyloxy) benzimidazole-2-carbamate], the IC50 was 1.1 µM.
The same measure, in the same setting: then `COCCNc1ccc(S(=O)(=O)Oc2ccc3[nH]c(NC(=O)NCc4ccccn4)nc3c2)cc1` [Example 78-f], with 0.1 µM.
On the same count and under the same terms, then `NCCNCCNc1ccc(S(=O)(=O)Oc2ccc3[nH]c(NC(=O)C4CC4)nc3c2)cc1` [Example 60-ad, 4-[2-(2-Amino-ethylamino)-ethylamino]-benzenesulfonic acid 2-(cyclopropanecarbonyl-amino)-1H-benzoimidazol-5-yl ester], with 1.3 µM; and `COCCOc1ccc(S(=O)(=O)Oc2ccc3nc(NC(=O)OC)[nH]c3c2)cc1` [Example 64-c, 4-(2-Methoxy-ethoxy)-benzenesulfonic acid 2-methoxycarbonylamino-3H-benzoimidazol-5-yl ester], with 4.37 µM.
